Source: patent publication US11344512B2, “Titration of tapentadol” (Grünenthal GmbH, priority 2007, dated 2022)

Assays:
[1] = tested on: patients with chronic low back pain or chronic pain from osteoarthritis of the knee or hip; test: Example E-3: opioid withdrawal after 90 days treatment (COWS and SOWS questionnaires), phase III trial; assay type: in vivo, human (patients); conditions: for patients reporting mild-to-moderate withdrawal symptoms (COWS assessment): 2 to 4 days after study medication ceased, after 90 days treatment
Procedure: The symptoms of opioid withdrawal following long-term treatment (90 days) with tapentadol immediate release (IR) compared with oxycodone IR were evaluated in a randomized, double-blind, active-control, parallel group, flexible dose, multicenter phase III trial of patients with chronic low back pain of chronic pain from osteoarthritis of the knee or hip. Patients (N=849) were randomly assigned in a 4:1 ratio to a flexible dose of tapentadol IR (50 or 100 mg/dose; maximum 600 mg/day) or oxycodone IR (10 or 15 mg/dose; maximum 90 mg/day) every 4 to 6 hours. Symptoms of withdrawal following opioid discontinuation were examined using the Clinical Opioid Withdrawal Score (COWS) and the Subjective Opioid Withdrawal Score (SOWS) questionnaires. […] The mean total SOWS score, 2 to 4 days after last study drug intake, was lower for the tapentadol IR group (6.9) than the oxycodone IR group (8.7). […] In addition, 5 or more days after last study drug intake, the mean total SOWS score was 6.3 for the tapentadol IR group and 7.0 for the oxycodone IR group (no significant difference).

[2] = tested on: patients with osteoarthritis of hip/knee or chronic low back pain; test: Clinical studies C-1/C-2 (without titration) and E-1/E-2 (forced titration): occurrence of somnolence; assay type: in vivo, human (patients)
Procedure: A randomized, double-blind, multiple dose, parallel-group study assessing the efficacy and safety of 3 dosages of tapentadol prolonged release (bid) (25 mg, 50 mg and 100 mg) compared to oxycodone prolonged release (bid) 20 mg and placebo over 28 days in patients with hip and/or knee-joint osteoarthritis. Subjects: 40-75 years old, male and female patients. 375 patients, randomized to placebo, standard opioid, tapentadol. Treatment Regimen: Day 1 only evening dose Day 2—Day 28 bid Day 29 only morning dose.
A randomized, double-blind, multiple dose, parallel-group study assessing the efficacy and safety of tapentadol prolonged release 25, 50 and 100 mg compared to placebo and tramadol prolonged release 100 mg in patients with chronic low back pain.
Male and female patients 18-75 years old with a history of low back pain of at least 6 months, requiring regular treatment on at least 60 out of last 90 days.
430 patients, randomized to placebo, tramadol 100 mg prolonged release, 3 dosages tapentadol.
A randomized, double-blind, parallel-group study assessing the efficacy and safety of two titration regimen of tapentadol prolonged release (25 mg, 50 mg, 100 mg and 100 mg, 150 mg, 200 mg of free base of tapentadol) given orally twice daily (bid) compared to placebo and oxycodone controlled release (10 mg, 10 mg, 20 mg) in patients with chronic pain due to osteoarthritis of the knee. Subjects: Male and female patients≥40 years old with a diagnosis of osteoarthritis of the knee Treatment Regimen: Patients started with the lowest dose of the titration phase for the first 3 days and up-titrated to the intermediate dose on day 4. Subjects were maintained at the intermediate dose for the next 11 days. After these 11 days patients started the maintenance phase and received the highest dose of each regimen for the remaining 14 days. Subjects who were unable to tolerate the highest dose after having received that dose for at least 3 days were allowed to down titrate to the intermediate dose. Down titration was permitted only once during the fixed-dose maintenance phase.
A randomized, double-blind, parallel-group study that compares the efficacy and safety of two titration regimens of tapentadol prolonged release (25 mg-50 mg-100 mg and 100 mg-150 mg-200 mg) given orally twice daily (bid) and tramadol prolonged release (100 mg-150 mg-200 mg) p.o. bid to placebo in patients with moderate to severe chronic pain due to chronic low back pain. Subjects: Male and female patients≥18 years old with a diagnosis of low back pain of at least 3 months. Treatment Regimen:
Patients took the first dose and continued on the lowest dose in their treatment regimen for 3 days (i.e. 6 doses). After the sixth dose, patients titrated to the intermediate dose in their treatment regimen and continued on this intermediate dose for 11 days (i.e. 22 doses). Up-titration was mandatory. Patients who were unable to tolerate study medication were removed from the study. After the twenty second dose, patients titrated to the final dose in their treatment regimen and continued on this final dose for 14 days.
Concentration measurements were taken from comparative examples C-1 and C-2, both without dose titration. Examples E-1 and E-2 in the same indications were used to get PK/PD information under dose titration. In all studies adverse events were noted.

pain = test: Preliminary clinical trials: pain treating effect (VAS) versus serum concentration of tapentadol; assay type: in vivo, human (individuals)
Procedure: In one preferred embodiment dose a is below the pharmaceutically effective pain treating dose of tapentadol. The pharmaceutically effective pain treating dose of tapentadol may vary individually and can be determined by routine experimentation for a given subject. Usually, the minimum pharmaceutically effective pain treating dose will be above 50 mg twice daily (bid). Preferably, effective pain treatment is to be regarded as at least 5% decrease in pain in an individual, more preferably at least 10%, still more preferably at least 15% and most preferably at least 20% decrease in pain in an individual, taking into account that low serum concentrations of tapentadol suffice to show an effect in individuals that are relatively sensitive and higher serum concentrations of tapentadol are needed to show an effect in persons that are relatively unsensitive.

adverse effects = conditions: cited from earlier work
[3] = 2 to 4 days after last study drug intake
[4] = 5 or more days after last study drug intake

Structure (SMILES): COc1ccc2c3c1O[C@H]1C(=O)CC[C@@]4(O)[C@@H](C2)N(C)CC[C@]314 [oxycodone IR, reference compound]
- mean total SOWS score [1, 3]: 8.7
- patients reporting mild-to-moderate withdrawal symptoms (COWS assessment) [1]: 29%
- mean total SOWS score [1, 4]: 7.0

Structure (SMILES): COc1ccc2c3c1O[C@H]1C(=O)CC[C@@]4(O)[C@@H](C2)N(C)CC[C@]314 [oxycodone, reference compound]
- effect of titration regimen of example E-1 on suppression of somnolence ([2]; FIG. 8, oxycodone controlled release): no comparable effect on the suppression of somnolence

Structure (SMILES): CC[C@@H](c1cccc(O)c1)[C@@H](C)CN(C)C [tapentadol IR]
- mean total SOWS score [1, 3]: 6.9
- patients reporting mild-to-moderate withdrawal symptoms (COWS assessment) [1]: 17%
- mean total SOWS score [1, 4]: 6.3

Structure (SMILES): CC[C@@H](c1cccc(O)c1)[C@@H](C)CN(C)C [tapentadol, (−)-(1R,2R)-3-(3-dimethylamino-1-ethyl-2-methyl-propyl)-phenol]
- concentration at which adverse events (somnolence) occurred, without titration (C-1, C-2) compared to dose titration (E-1, E-2) ([2]; FIG. 5 and 6, prolonged release): much lower concentration
- somnolence occurred in % of patients ([2]; studies using forced titration, total daily dose 200 mg, pooled data): 6%
- somnolence occurred in % of patients ([2]; studies using forced titration, total daily dose 400 mg, pooled data): 12%
- somnolence occurred in % of patients ([2]; studies without titration, total daily dose 172 mg, pooled data from both studies): 4.3%
- visual analog scale (VAS) in a population mean (pain; at serum concentration about 5 ng/ml): approximately −2 mm
- visual analog scale (VAS) in a population mean (pain; at serum concentration about 300 ng/ml): approximately −15 mm

Structure (SMILES): COc1cccc(C2(O)CCCCC2CN(C)C)c1 (stereo not drawn) [tramadol]
- frequency of dizziness, nausea and vomiting with slow titration (adverse effects): reduce the frequency
- frequency of somnolence with slow titration (adverse effects): not significantly reduced
